Patent US10357493B2, “Metalloenzyme inhibitor compounds” (Selenity Therapeutics (Bermuda), Ltd., priority 2017, dated 2019)

Key:
HDAC1 = HDAC1 (Homo sapiens (Human), UniProt Q13547); assay: HDAC1 enzymatic assay; assay type: biochemical; conditions: read-out: Human HDAC1 IC50
Method: (§1) All enzymatic reactions were conducted in duplicate at room temperature for 17 hours in a 50 μl mixture containing HDAC assay buffer (50 mM Tris-HCl, pH 7.4, 137 mM NaCl, 2.7 mM KCl, 0.05% Tween 20, 5 μg BSA), an HDAC substrate, an HDAC enzyme, and a test compound. Compound dilution was prepared ten-fold higher than the final concentration of the compounds with 10% DMSO in HDAC assay buffer and 5 μl of the dilution was added to a 50 μl reaction so that the final concentration of DMSO is 1% in all of reactions. After enzymatic reactions, 50 μl of HDAC Developer was added to each well and the plate was incubated at room temperature for an additional 20 minutes. Fluorescence intensity was measured at an excitation of 360 nm and an emission of 460 nm using a Tecan Infinite M1000 or Biotek Synergy microplate reader.
(§2) The fluorescent intensity data were analyzed using the computer software, Graphpad Prism. In the absence of the compound, the fluorescent intensity (Ft) in each data set was defined as 100% activity. In the absence of HDAC, the fluorescent intensity (Fb) in each data set was defined as 0% activity. The percent activity in the presence of each compound was calculated according to the following equation: % activity=(F−Fb)/(Ft−Fb), where F=the fluorescent intensity in the presence of the compound.
(§3) The values of % activity versus a series of compound concentrations were then plotted using non-linear regression analysis of Sigmoidal dose-response curve generated with the equation Y=B+(T−B)/1+10((Log EC50−X)×Hill Slope), where Y=percent activity, B=minimum percent activity, T=maximum percent activity, X=logarithm of compound and Hill Slope=slope factor or Hill coefficient. The IC50 value was determined by the concentration causing a half-maximal percent activity.
(§4) HDAC1 enzymatic assays contained 0.5 ng HDAC1 and 10 uM of HDAC substrate. HDAC2 enzymatic assays contained 0.5 ng HDAC2 and 10 uM of HDAC substrate. HDAC3 enzymatic assays contained 0.4 ng HDAC3/NCOR2 and 10 uM of HDAC substrate. HDAC4 enzymatic assays contained 0.02 ng HDAC4 and 2 uM of HDAC substrate. HDAC5 enzymatic assays contained 0.5 ng HDAC5 and 2 uM of HDAC substrate. HDAC6 enzymatic assays contained 2 ng HDAC6 and 10 uM of HDAC substrate. HDAC7 enzymatic assays contained 0.05 ng HDAC7 and 2 uM of HDAC substrate. HDAC8 enzymatic assays contained 5 ng HDAC8 and 2 uM of HDAC substrate. HDAC9 enzymatic assays contained 1 ng HDAC9 and 2 uM of HDAC substrate. HDAC10 enzymatic assays contained 75 ng HDAC10 and 10 uM of HDAC substrate. HDAC11 enzymatic assays contained 5 ng HDAC11 and 2 uM of HDAC substrate.

HDAC6 = HDAC6 (Homo sapiens (Human), UniProt Q9UBN7); assay: HDAC6 enzymatic assay; assay type: biochemical; conditions: read-out: Human HDAC6 IC50
Method: as §1, §2, §3, §4

Chain of HDAC6 (Q9UBN7 whole entry): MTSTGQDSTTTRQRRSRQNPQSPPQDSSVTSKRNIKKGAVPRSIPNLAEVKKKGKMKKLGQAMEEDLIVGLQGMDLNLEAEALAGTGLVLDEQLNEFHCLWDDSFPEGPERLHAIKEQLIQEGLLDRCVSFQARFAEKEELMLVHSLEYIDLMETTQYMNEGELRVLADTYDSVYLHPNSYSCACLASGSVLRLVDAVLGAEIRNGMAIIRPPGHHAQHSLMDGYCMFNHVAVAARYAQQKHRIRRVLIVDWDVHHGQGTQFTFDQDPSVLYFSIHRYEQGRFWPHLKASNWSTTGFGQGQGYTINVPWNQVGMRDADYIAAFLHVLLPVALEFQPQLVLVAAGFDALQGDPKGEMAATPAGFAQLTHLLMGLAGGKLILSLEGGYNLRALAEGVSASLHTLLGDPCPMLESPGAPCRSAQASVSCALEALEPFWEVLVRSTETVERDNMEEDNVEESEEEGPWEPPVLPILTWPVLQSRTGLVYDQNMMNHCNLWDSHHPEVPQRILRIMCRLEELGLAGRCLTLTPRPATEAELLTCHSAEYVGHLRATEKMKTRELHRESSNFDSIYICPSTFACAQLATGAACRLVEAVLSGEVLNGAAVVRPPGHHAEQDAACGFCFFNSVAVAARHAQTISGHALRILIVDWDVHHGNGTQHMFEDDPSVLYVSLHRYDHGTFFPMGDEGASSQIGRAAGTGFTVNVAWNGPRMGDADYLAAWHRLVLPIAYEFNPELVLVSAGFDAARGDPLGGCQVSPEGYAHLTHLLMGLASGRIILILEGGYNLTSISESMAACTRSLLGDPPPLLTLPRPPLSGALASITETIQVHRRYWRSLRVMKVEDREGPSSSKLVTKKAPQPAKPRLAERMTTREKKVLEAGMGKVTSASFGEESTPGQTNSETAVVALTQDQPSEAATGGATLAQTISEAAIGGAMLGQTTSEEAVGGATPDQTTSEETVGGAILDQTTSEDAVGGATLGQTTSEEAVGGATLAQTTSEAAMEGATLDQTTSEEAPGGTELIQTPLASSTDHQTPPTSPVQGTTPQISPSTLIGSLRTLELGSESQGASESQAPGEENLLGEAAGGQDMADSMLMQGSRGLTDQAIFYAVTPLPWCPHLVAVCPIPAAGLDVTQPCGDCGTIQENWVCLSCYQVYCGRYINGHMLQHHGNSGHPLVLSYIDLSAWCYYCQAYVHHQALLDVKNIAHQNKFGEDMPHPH
Chain of HDAC1 (Q13547 whole entry): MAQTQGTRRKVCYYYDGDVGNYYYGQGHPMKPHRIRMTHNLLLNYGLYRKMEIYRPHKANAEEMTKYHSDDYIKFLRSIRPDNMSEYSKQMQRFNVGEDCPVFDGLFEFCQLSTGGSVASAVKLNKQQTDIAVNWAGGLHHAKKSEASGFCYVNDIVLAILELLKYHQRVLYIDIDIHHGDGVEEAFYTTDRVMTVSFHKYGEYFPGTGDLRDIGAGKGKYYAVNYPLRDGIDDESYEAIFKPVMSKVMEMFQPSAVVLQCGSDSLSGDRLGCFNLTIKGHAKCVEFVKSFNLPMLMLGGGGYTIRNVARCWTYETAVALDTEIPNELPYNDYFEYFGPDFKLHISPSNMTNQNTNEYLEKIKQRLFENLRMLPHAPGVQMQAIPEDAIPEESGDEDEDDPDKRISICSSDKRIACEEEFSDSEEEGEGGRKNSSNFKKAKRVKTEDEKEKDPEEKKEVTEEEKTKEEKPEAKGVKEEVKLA

| Compound | IC50 (HDAC1) [µM] | IC50 (HDAC6) [µM] |
| --- | --- | --- |
| O=C(C(Nc1ncc(-c2nnc(C(F)F)o2)cn1)c1ccc(F)cc1)N1CCOCC1 (centres unmarked) [Example 30, 2-((5-(5-(difluoromethyl)-1,3,4-oxadiazol-2-yl)pyrimidin-2-yl)amino)-2-(4-fluorophenyl)-1-morpholinoethan-1-one] | > 30 | 0.77 |
| CS(=O)(=O)NCC(Nc1ncc(-c2nnc(C(F)F)o2)cn1)c1ccc(OC(F)F)cc1 (single isomer, unassigned) [115(−), N-(2-(4-(difluoromethoxy)phenyl)-2-((5-(5-(difluoromethyl)-1,3,4-oxadiazol-2-yl)pyrimidin-2-yl)amino)ethyl)methanesulfonamide] | > 30 | 0.37 |
| CS(=O)(=O)NCC(Nc1ncc(-c2nnc(C(F)F)o2)cn1)c1ccc(F)cc1 (single isomer, unassigned) [38(−), N-(2-((5-(5-(difluoromethyl)-1,3,4-oxadiazol-2-yl)pyrimidin-2-yl)amino)-2-(4-fluorophenyl)ethyl) methanesulfonamide] | > 30 | 0.32 |
| CN(CC(Nc1ncc(-c2nnc(C(F)F)o2)cn1)c1ccc(F)cc1)S(C)(=O)=O (centres unmarked) [Example 113, N-(2-((5-(5-(difluoromethyl)-1,3,4-oxadiazol-2-yl)pyrimidin-2-yl)amino)-2-(4-fluorophenyl)ethyl)-N-methylmethanesulfonamide] | > 30 | 0.021 |
| Fc1ccc(C(Cn2cc(C(F)(F)F)cn2)Nc2ncc(-c3nnc(C(F)F)o3)cn2)cc1 (single isomer, unassigned) [176(−), 5-(5-(difluoromethyl)-1,3,4-oxadiazol-2-yl)-N-(1-(4-fluorophenyl)-2-(4-(trifluoromethyl)-1H-pyrazol-1-yl)ethyl)pyrimidin-2-amine] | > 30 | 1.5 |
| CN(CC(Nc1ncc(-c2nnc(C(F)F)o2)cn1)c1ccc(OC(F)F)cc1F)S(C)(=O)=O (stereo not drawn) [145(+), N-(2-(4-(difluoromethoxy)-2-fluorophenyl)-2-((5-(5-(difluoromethyl)-1,3,4-oxadiazol-2-yl)pyrimidin-2-yl)amino)ethyl)-N-methylmethanesulfonamide] | > 30 | 0.041 |
| CCS(=O)(=O)N(CC(Nc1ncc(-c2nnc(C(F)F)o2)cn1)c1ccc(F)cc1)CC(F)(F)F (single isomer, unassigned) [164(−), N-(2-((5-(5-(difluoromethyl)-1,3,4-oxadiazol-2-yl)pyrimidin-2-yl)amino)-2-(4-fluorophenyl)ethyl)-N-(2,2,2-trifluoroethyl)ethanesulfonamide] | > 30 | 0.23 |
| CC(C)CS(=O)(=O)NCC(Nc1ncc(-c2nnc(C(F)F)o2)cn1)c1ccc(F)cc1 (centres unmarked) [Example 112, N-(2-((5-(5-(difluoromethyl)-1,3,4-oxadiazol-2-yl)pyrimidin-2-yl)amino)-2-(4-fluorophenyl)ethyl)-2-methylpropane-1-sulfonamide] | > 30 | 0.032 |
| CC(=O)N(C)CC(Nc1ncc(-c2nnc(C(F)F)o2)cn1)c1ccc(F)cc1 (single isomer, unassigned) [166(−), N-(2-((5-(5-(difluoromethyl)-1,3,4-oxadiazol-2-yl)pyrimidin-2-yl)amino)-2-(4-fluorophenyl)ethyl)-N-methylacetamide] | > 30 | 0.36 |
| CC(=O)NCC(Nc1ncc(-c2nnc(C(F)F)o2)cn1)c1ccc(F)cc1 (racemic) [Example 78, N-(2-((5-(5-(difluoromethyl)-1,3,4-oxadiazol-2-yl)pyrimidin-2-yl)amino)-2-(4-fluorophenyl)ethyl)acetamide] | > 30 | 0.047 |
| Fc1ccc(C(Cn2cnc(C(F)(F)F)c2)Nc2ncc(-c3nnc(C(F)F)o3)cn2)cc1 (single isomer, unassigned) [175(−), 5-(5-(difluoromethyl)-1,3,4-oxadiazol-2-yl)-N-(1-(4-fluorophenyl)-2-(4-(trifluoromethyl)-1H-imidazol-1-yl)ethyl)pyrimidin-2-amine] | > 30 | 1.5 |
| CC(NS(C)(=O)=O)C(Nc1ncc(-c2nnc(C(F)F)o2)cn1)c1ccc(F)cc1 (single isomer, unassigned) [Example 127A, N-(1-((5-(5-(difluoromethyl)-1,3,4-oxadiazol-2-yl)pyrimidin-2-yl)amino)-1-(4-fluorophenyl)propan-2-yl)methanesulfonamide] | > 30 | 0.045 |

Other lines, results leading:

| IC50 (HDAC1) [µM] | IC50 (HDAC6) [µM] | Compound |
| --- | --- | --- |
| > 30 | 0.053 | CN(CC(Nc1ncc(-c2nnc(C(F)F)o2)cn1)c1ccc(F)cc1F)S(=O)(=O)C1CC1 (stereo not drawn) [143(+), N-(2-((5-(5-(difluoromethyl)-1,3,4-oxadiazol-2-yl)pyrimidin-2-yl)amino)-2-(2,4-difluorophenyl)ethyl)-N-methylcyclopropanesulfonamide] |
| > 30 | 0.077 | Fc1cc(OCC(F)(F)F)ccc1C1(Nc2ncc(-c3nnc(C(F)F)o3)cn2)CC1 [Example 84, 5-(5-(difluoromethyl)-1,3,4-oxadiazol-2-yl)-N-(1-(2-fluoro-4-(2,2,2-trifluoroethoxy)phenyl)cyclopropyl)pyrimidin-2-amine] |
| > 30 | 0.034 | CC(C)(Nc1ncc(-c2nnc(C(F)F)o2)cn1)c1ccc(F)cc1F [Example 97, 5-(5-(difluoromethyl)-1,3,4-oxadiazol-2-yl)-N-(2-(2,4-difluorophenyl)propan-2-yl)pyrimidin-2-amine] |
| > 30 | 0.022 | FC(F)c1nnc(-c2cnc(NC3(c4ccc(OC(F)(F)F)cc4)CC3)nc2)o1 [Example 54, 5-(5-(difluoromethyl)-1,3,4-oxadiazol-2-yl)-N-(1-(4-(trifluoromethoxy)phenyl)cyclopropyl) pyrimidin-2-amine] |
| > 30 | 0.19 | Fc1ccc(C2(Nc3ncc(-c4nnc(C(F)F)o4)cn3)CC2)nc1 [Example 67, 5-(5-(difluoromethyl)-1,3,4-oxadiazol-2-yl)-N-(1-(5-fluoropyridin-2-yl)cyclopropyl) pyrimidin-2-amine] |
| > 30 | 0.038 | Fc1ccc(OC(F)(F)F)cc1C1(Nc2ncc(-c3nnc(C(F)F)o3)cn2)CC1 [Example 75, 5-(5-(difluoromethyl)-1,3,4-oxadiazol-2-yl)-N-(1-(2-fluoro-5-(trifluoromethoxy)phenyl)cyclopropyl)pyrimidin-2-amine] |
| > 30 | 0.058 | Fc1ccc(-c2cccc(C3(Nc4ncc(-c5nnc(C(F)F)o5)cn4)CC3)c2)cc1 [Example 18, 5-(5-(difluoromethyl)-1,3,4-oxadiazol-2-yl)-N-(1-(4′-fluoro-[1,1′-biphenyl]-3-yl)cyclopropyl)pyrimidin-2-amine] |
| > 30 | > 1 | CC(Nc1ncc(-c2nnc(C(F)F)o2)cn1)c1ccc(F)cc1 (single isomer, unassigned; (-)) [20(−), (−)-5-(5-(difluoromethyl)-1,3,4-oxadiazol-2-yl)-N-(1-(4-fluorophenyl)ethyl)pyrimidin-2-amine] |
| > 30 | 0.035 | Fc1cc(F)cc(C2(Nc3ncc(-c4nnc(C(F)F)o4)cn3)CC2)c1 [Example 72, 5-(5-(difluoromethyl)-1,3,4-oxadiazol-2-yl)-N-(1-(3,5-difluorophenyl)cyclopropyl) pyrimidin-2-amine] |
| > 30 | 0.057 | CC(Nc1ncc(-c2nnc(C(F)F)o2)cn1)c1ccccc1 (centres unmarked) [Example 6, 5-(5-(difluoromethyl)-1,3,4-oxadiazol-2-yl)-N-(1-phenylethyl)pyrimidin-2-amine] |
| > 30 | 0.077 | COCC(Nc1ncc(-c2nnc(C(F)F)o2)cn1)c1ccc(F)cc1 (centres unmarked) [Example 21, 5-(5-(difluoromethyl)-1,3,4-oxadiazol-2-yl)-N-(1-(4-fluorophenyl)-2-methoxyethyl)pyrimidin-2-amine] |
| – | 0.061 | Fc1ccc(C(COC2CC2)Nc2ncc(-c3nnc(C(F)F)o3)cn2)c(F)c1 (single isomer, unassigned) [Example 134B, N-(2-cyclopropoxy-1-(2,4-difluorophenyl)ethyl)-5-(5-(difluoromethyl)-1,3,4-oxadiazol-2-yl)pyrimidin-2-amine] |
